PubChem BioAssay AID2060912 (Molecular Pharmacology Branch, DTP, NCI, 2025)

System: HUVEC/MSC spheroids viability
Assay: Human HUVEC/MSC cell line growth inhibition [KRAS2];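 for viability, T/C: percent of DMSO vehicle control luminescence so 100% = untreated viability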
Settings: for IC50: curve of first compound; for viability, T/C: stronger effect = lower value; active = viability on the fitted dose curve at most 10% of control; inactive = the rest
How it was run: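 Growth/viability of tumour-free HUVEC–hMSC spheroids was measured after exposure to targeted small molecules and KRAS inhibitors, singly or in combination. Agents were diluted in half-log steps from Cmax-based top concentrations, capped at 10 microM without known Cmax.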

[1] = second compound 0.0316 µM, first compound 0.0316 µM
[2] = second compound 0.0316 µM, first compound 0.1 µM
[3] = second compound 0.0316 µM, first compound 0.316 µM
[4] = second compound 0.0316 µM, first compound 1 µM
[5] = second compound 0.0316 µM, first compound 3.16 µM
[6] = second compound 0.0316 µM, first compound 10 µM
[7] = second compound 0.1 µM, first compound 0.0316 µM
[8] = second compound 0.1 µM, first compound 0.1 µM
[9] = second compound 0.1 µM, first compound 0.316 µM
[10] = second compound 0.1 µM, first compound 1 µM
[11] = second compound 0.1 µM, first compound 3.16 µM
[12] = second compound 0.1 µM, first compound 10 µM
[13] = second compound 0.316 µM, first compound 0.0316 µM
[14] = second compound 0.316 µM, first compound 0.1 µM
[15] = second compound 0.316 µM, first compound 0.316 µM
[16] = second compound 0.316 µM, first compound 1 µM
[17] = second compound 0.316 µM, first compound 3.16 µM
[18] = second compound 0.316 µM, first compound 10 µM
[19] = second compound 1 µM, first compound 0.0316 µM
[20] = second compound 1 µM, first compound 0.1 µM
[21] = second compound 1 µM, first compound 0.316 µM
[22] = second compound 1 µM, first compound 1 µM
[23] = second compound 1 µM, first compound 3.16 µM
[24] = second compound 1 µM, first compound 10 µM
[25] = second compound 3.16 µM, first compound 0.0316 µM
[26] = second compound 3.16 µM, first compound 0.1 µM
[27] = second compound 3.16 µM, first compound 0.316 µM
[28] = second compound 3.16 µM, first compound 1 µM
[29] = second compound 3.16 µM, first compound 3.16 µM
[30] = second compound 3.16 µM, first compound 10 µM
[31] = second compound 10 µM, first compound 0.0316 µM
[32] = second compound 10 µM, first compound 0.1 µM
[33] = second compound 10 µM, first compound 0.316 µM
[34] = second compound 10 µM, first compound 1 µM
[35] = second compound 10 µM, first compound 3.16 µM
[36] = second compound 10 µM, first compound 10 µM

CC1COCCN1c1cc(-c2ccnn2C)c2ccnc(-c3ccn[nH]3)c2n1 (stereo unspecified) + CNCc1ccccc1-c1csc(C(C)Nc2nc(C)nc3cc(OC)c(OC)cc23)c1
3 µM: IC50 (second compound 0.1 µM)
1.77 µM: IC50 (second compound 0.316 µM)
1.61 µM: IC50 (second compound 0.0316 µM)
< 0.00949 µM: IC50 (second compound 10 µM)
active: viability, T/C (second compound 10 µM, first compound 0.00949 µM) 0.34% | viability, T/C (second compound 10 µM, first compound 0.03 µM) 0.43% | viability, T/C (second compound 10 µM, first compound 0.0949 µM) 0.45% | viability, T/C (second compound 10 µM, first compound 0.3 µM) 0.45% | viability, T/C (second compound 10 µM, first compound 0.949 µM) 0.4% | viability, T/C (second compound 10 µM, first compound 3 µM) 0.37%
1.26 µM: IC50 (second compound 1 µM)
inactive: viability, T/C (second compound 0.0316 µM, first compound 0.00949 µM) 102% | viability, T/C (second compound 0.0316 µM, first compound 0.03 µM) 96.5% | viability, T/C (second compound 0.0316 µM, first compound 0.0949 µM) 87% | viability, T/C (second compound 0.0316 µM, first compound 0.3 µM) 74.9% | viability, T/C (second compound 0.0316 µM, first compound 0.949 µM) 54.1% | viability, T/C (second compound 0.0316 µM, first compound 3 µM) 43.8% | viability, T/C (second compound 0.1 µM, first compound 0.00949 µM) 88.4% | viability, T/C (second compound 0.1 µM, first compound 0.03 µM) 98.8% | viability, T/C (second compound 0.1 µM, first compound 0.0949 µM) 105% | viability, T/C (second compound 0.1 µM, first compound 0.3 µM) 78.2% | viability, T/C (second compound 0.1 µM, first compound 0.949 µM) 63.1% | viability, T/C (second compound 0.1 µM, first compound 3 µM) 48.3% | viability, T/C (second compound 0.316 µM, first compound 0.00949 µM) 97.5% | viability, T/C (second compound 0.316 µM, first compound 0.03 µM) 95.1% | viability, T/C (second compound 0.316 µM, first compound 0.0949 µM) 74% | viability, T/C (second compound 0.316 µM, first compound 0.3 µM) 66.7% | viability, T/C (second compound 0.316 µM, first compound 0.949 µM) 60.4% | viability, T/C (second compound 0.316 µM, first compound 3 µM) 42.8% | viability, T/C (second compound 1 µM, first compound 0.00949 µM) 85.8% | viability, T/C (second compound 1 µM, first compound 0.03 µM) 78% | viability, T/C (second compound 1 µM, first compound 0.0949 µM) 70.6% | viability, T/C (second compound 1 µM, first compound 0.3 µM) 67.1% | viability, T/C (second compound 1 µM, first compound 0.949 µM) 54.8% | viability, T/C (second compound 1 µM, first compound 3 µM) 37.7% | viability, T/C (second compound 3.16 µM, first compound 0.00949 µM) 94% | viability, T/C (second compound 3.16 µM, first compound 0.03 µM) 101% | viability, T/C (second compound 3.16 µM, first compound 0.0949 µM) 92.6% | viability, T/C (second compound 3.16 µM, first compound 0.3 µM) 81.8% | viability, T/C (second compound 3.16 µM, first compound 0.949 µM) 80.1% | viability, T/C (second compound 3.16 µM, first compound 3 µM) 67.6%
> 3 µM: IC50 (second compound 3.16 µM)

CC1OCC2(CCN(c3cnc(Sc4ccnc(N)c4Cl)c(N)n3)CC2)C1N (stereo unspecified) + CNCc1ccccc1-c1csc(C(C)Nc2nc(C)nc3cc(OC)c(OC)cc23)c1
4.95 µM: IC50 (second compound 3.16 µM)
inactive: viability, T/C [1] 90.2% | viability, T/C [2] 104% | viability, T/C [3] 86.8% | viability, T/C [4] 80.1% | viability, T/C [5] 83.1% | viability, T/C [6] 51.9% | viability, T/C [7] 94.5% | viability, T/C [8] 108% | viability, T/C [9] 90.4% | viability, T/C [10] 74.2% | viability, T/C [11] 68% | viability, T/C [12] 42.5% | viability, T/C [13] 90.2% | viability, T/C [14] 81.9% | viability, T/C [15] 78.2% | viability, T/C [16] 69.9% | viability, T/C [17] 70.3% | viability, T/C [18] 38.5% | viability, T/C [19] 74.6% | viability, T/C [20] 104% | viability, T/C [21] 79.1% | viability, T/C [22] 67.4% | viability, T/C [23] 68.8% | viability, T/C [24] 42.5% | viability, T/C [25] 90.8% | viability, T/C [26] 98.7% | viability, T/C [27] 82% | viability, T/C [28] 89.2% | viability, T/C [29] 78.9%
6.91 µM: IC50 (second compound 0.1 µM) | IC50 (second compound 1 µM)
active: viability, T/C [30] 4.77% | viability, T/C [31] 0.35% | viability, T/C [32] 0.39% | viability, T/C [33] 0.53% | viability, T/C [34] 0.42% | viability, T/C [35] 0.4% | viability, T/C [36] 0.25%
> 10 µM: IC50 (second compound 0.0316 µM)
6.2 µM: IC50 (second compound 0.316 µM)
< 0.0316 µM: IC50 (second compound 10 µM)

Cn1nccc1Nc1nccc(-c2cc3c(s2)C(C)(C)N(CCN2CCOCC2)C3=O)n1 + CNCc1ccccc1-c1csc(C(C)Nc2nc(C)nc3cc(OC)c(OC)cc23)c1
< 0.0316 µM: IC50 (second compound 10 µM)
2.14 µM: IC50 (second compound 0.0316 µM)
1.97 µM: IC50 (second compound 3.16 µM)
2.49 µM: IC50 (second compound 0.1 µM)
2.59 µM: IC50 (second compound 0.316 µM)
inactive: viability, T/C [1] 94.5% | viability, T/C [2] 119% | viability, T/C [3] 117% | viability, T/C [4] 94.7% | viability, T/C [5] 26.9% | viability, T/C [7] 85.8% | viability, T/C [8] 103% | viability, T/C [9] 105% | viability, T/C [10] 110% | viability, T/C [11] 36.7% | viability, T/C [13] 88.2% | viability, T/C [14] 96.1% | viability, T/C [15] 103% | viability, T/C [16] 111% | viability, T/C [17] 39.6% | viability, T/C [19] 83% | viability, T/C [20] 90.5% | viability, T/C [21] 103% | viability, T/C [22] 96.7% | viability, T/C [23] 36.2% | viability, T/C [25] 102% | viability, T/C [26] 135% | viability, T/C [27] 128% | viability, T/C [28] 99.9% | viability, T/C [29] 15.4%
active: viability, T/C [6] 3.31% | viability, T/C [12] 3.17% | viability, T/C [18] 1.89% | viability, T/C [24] 0.95% | viability, T/C [30] 0.23% | viability, T/C [31] 0.35% | viability, T/C [32] 0.4% | viability, T/C [33] 0.48% | viability, T/C [34] 0.37% | viability, T/C [35] 0.37% | viability, T/C [36] 0.19%
2.39 µM: IC50 (second compound 1 µM)
